# ChEMBL document CHEMBL1201862, “PubChem BioAssay data set” (2004)
#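 Five compound concentrations were applied to cells in 96-well plates for 48 hours; endpoints were derived by simple linear interpolation of the resulting dose-response curve. GI50 is the concentration that inhibits growth by half.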 Calls of active or inactive are those of the source. No stated cut-off is given here; in the data, active = GI50 up to about 1.1 µM and inactive = higher.
# Tests used:
# Assay in all cases: DTP human tumour cell line panel, 48 h
# 786-0 = system: 786-0
# A498 = system: A498
# A549 = system: A549
# ACHN = system: ACHN
# BT-549 = system: BT-549
# CAKI-1 = system: CAKI-1
# CCRF-CEM = system: CCRF-CEM
# COLO 205 = system: COLO 205
# DU-145 = system: DU-145
# EKVX = system: EKVX
# HCC 2998 = system: HCC 2998
# HCT-116 = system: HCT-116
# HCT-15 = system: HCT-15
# HOP-62 = system: HOP-62
# HOP-92 = system: HOP-92
# HT-29 = system: HT-29
# Hs-578T = system: Hs-578T
# IGROV-1 = system: IGROV-1
# K562 = system: K562
# KM12 = system: KM12
# LOX IMVI = system: LOX IMVI
# M14 = system: M14
# MCF7 = system: MCF7
# MDA-MB-231 = system: MDA-MB-231
# MDA-MB-435 = system: MDA-MB-435
# MDA-N = system: MDA-N
# MOLT-4 = system: MOLT-4
# Malme-3M = system: Malme-3M
# NCI-H226 = system: NCI-H226
# NCI-H23 = system: NCI-H23
# NCI-H460 = system: NCI-H460
# NCI-H522 = system: NCI-H522
# NCI/ADR-RES = system: NCI/ADR-RES
# OVCAR-3 = system: OVCAR-3
# OVCAR-4 = system: OVCAR-4
# OVCAR-5 = system: OVCAR-5
# OVCAR-8 = system: OVCAR-8
# PC-3 = system: PC-3
# RPMI-8226 = system: RPMI-8226
# RXF 393 = system: RXF 393
# SF-268 = system: SF-268
# SF-295 = system: SF-295
# SF-539 = system: SF-539
# SK-MEL-28 = system: SK-MEL-28
# SK-MEL-2 = system: SK-MEL-2
# SK-MEL-5 = system: SK-MEL-5
# SK-OV-3 = system: SK-OV-3
# SN12C = system: SN12C
# SNB-19 = system: SNB-19
# SNB-75 = system: SNB-75
# SR = system: SR
# SW-620 = system: SW-620
# T47D = system: T47D
# TK-10 = system: TK-10
# U-251 = system: U-251
# UACC-257 = system: UACC-257
# UACC-62 = system: UACC-62
# UO-31 = system: UO-31
# HL-60 = system: HL-60
smiles,measurement,setting,value
CNC(=O)OCc1c2ccncc2c(C)c2c1[nH]c1ccccc12,GI50,786-0,0.262 µM (active)
same,GI50,A498,0.202 µM (active)
same,GI50,A549,0.251 µM (active)
same,GI50,ACHN,0.0841 µM (active)
same,GI50,BT-549,0.32 µM (active)
same,GI50,CAKI-1,0.141 µM (active)
same,GI50,CCRF-CEM,0.0962 µM (active)
same,GI50,COLO 205,0.443 µM (active)
same,GI50,DU-145,0.269 µM (active)
same,GI50,EKVX,0.372 µM (active)
same,GI50,HCC 2998,0.206 µM (active)
same,GI50,HCT-116,0.184 µM (active)
same,GI50,HCT-15,0.234 µM
same,GI50,HOP-62,0.494 µM (active)
same,GI50,HOP-92,0.695 µM (active)
same,GI50,HT-29,0.215 µM (active)
same,GI50,Hs-578T,0.413 µM (active)
same,GI50,IGROV-1,0.182 µM (active)
same,GI50,K562,0.275 µM (active)
same,GI50,KM12,0.449 µM (active)
same,GI50,LOX IMVI,0.136 µM (active)
same,GI50,M14,1.18 µM (inactive)
same,GI50,MCF7,0.0455 µM (active)
same,GI50,MDA-MB-231,0.48 µM (active)
same,GI50,MDA-MB-435,0.421 µM (active)
same,GI50,MDA-N,0.501 µM (active)
same,GI50,MOLT-4,0.0659 µM (active)
same,GI50,Malme-3M,0.372 µM (active)
same,GI50,NCI-H226,0.258 µM (active)
same,GI50,NCI-H23,0.195 µM (active)
same,GI50,NCI-H460,0.167 µM (active)
same,GI50,NCI-H522,0.0646 µM (active)
same,GI50,NCI/ADR-RES,0.24 µM (active)
same,GI50,OVCAR-3,0.28 µM (active)
same,GI50,OVCAR-4,0.271 µM (active)
same,GI50,OVCAR-5,0.296 µM (active)
same,GI50,OVCAR-8,0.125 µM (active)
same,GI50,PC-3,0.723 µM (active)
same,GI50,RPMI-8226,0.134 µM (active)
same,GI50,RXF 393,< 0.0385 µM (active)
same,GI50,SF-268,0.272 µM (active)
same,GI50,SF-295,0.292 µM (active)
same,GI50,SF-539,0.207 µM (active)
same,GI50,SK-MEL-28,0.818 µM (active)
same,GI50,SK-MEL-2,0.261 µM (active)
same,GI50,SK-MEL-5,0.242 µM (active)
same,GI50,SK-OV-3,0.288 µM (active)
same,GI50,SN12C,0.275 µM (active)
same,GI50,SNB-19,0.372 µM (active)
same,GI50,SNB-75,0.21 µM (active)
same,GI50,SR,< 0.01 µM (active)
same,GI50,SW-620,0.136 µM (active)
same,GI50,T47D,0.331 µM (active)
same,GI50,TK-10,0.237 µM (active)
same,GI50,U-251,0.223 µM (active)
same,GI50,UACC-257,0.587 µM (active)
same,GI50,UACC-62,0.238 µM (active)
same,GI50,UO-31,0.231 µM (active)
CC(C)=C1C(=O)C[C@@]2(C)C[C@H]3OC3(C)CC/C=C(/C)CCC12 (stereo partly specified),GI50,A549,75.2 µM (inactive)
same,GI50,BT-549,99.5 µM (inactive)
same,GI50,CCRF-CEM,58.7 µM (inactive)
same,GI50,DU-145,> 100 µM (inactive)
same,GI50,EKVX,48.2 µM (inactive)
same,GI50,HCC 2998,> 100 µM (inactive)
same,GI50,HCT-116,65 µM (inactive)
same,GI50,HCT-15,75.9 µM
same,GI50,HL-60,21.8 µM (inactive)
same,GI50,HT-29,53.7 µM (inactive)
same,GI50,Hs-578T,> 100 µM (inactive)
same,GI50,K562,50.6 µM (inactive)
same,GI50,MCF7,71.9 µM (inactive)
same,GI50,MDA-MB-231,> 100 µM (inactive)
same,GI50,MDA-MB-435,64 µM (inactive)
same,GI50,MDA-N,> 100 µM (inactive)
same,GI50,MOLT-4,35.4 µM (inactive)
same,GI50,Malme-3M,> 100 µM (inactive)
same,GI50,NCI-H226,69.7 µM (inactive)
same,GI50,NCI-H23,91.8 µM (inactive)
same,GI50,NCI-H460,62.4 µM (inactive)
same,GI50,NCI-H522,27.8 µM (inactive)
same,GI50,NCI/ADR-RES,18.3 µM (inactive)
same,GI50,OVCAR-3,56.8 µM (inactive)
same,GI50,OVCAR-4,90.8 µM (inactive)
same,GI50,PC-3,25.2 µM (inactive)
same,GI50,RXF 393,> 10 µM (inactive)
same,GI50,SK-MEL-28,> 100 µM (inactive)
same,GI50,SK-MEL-5,> 100 µM (inactive)
same,GI50,SN12C,> 100 µM (inactive)
same,GI50,SNB-75,80 µM (inactive)
same,GI50,SR,70.6 µM (inactive)
same,GI50,T47D,49.4 µM (inactive)
same,GI50,TK-10,> 100 µM (inactive)
same,GI50,UACC-257,50.4 µM (inactive)
same,GI50,UACC-62,50.5 µM (inactive)
same,GI50,UO-31,68.2 µM (inactive)
NS(=O)(=O)c1cc2c(cc1Cl)NC(Cc1ccccc1)NS2(=O)=O (stereo unspecified) [BENZYLHYDROCHLOROTHIAZIDE],GI50,786-0,> 100 µM (inactive)
same,GI50,A498,> 100 µM (inactive)
same,GI50,A549,> 100 µM (inactive)
same,GI50,ACHN,> 100 µM (inactive)
same,GI50,BT-549,> 100 µM (inactive)
same,GI50,CAKI-1,> 100 µM (inactive)
same,GI50,COLO 205,> 100 µM (inactive)
same,GI50,DU-145,> 100 µM (inactive)
same,GI50,EKVX,> 100 µM (inactive)
same,GI50,HCC 2998,> 100 µM (inactive)
same,GI50,HCT-116,46.1 µM (inactive)
same,GI50,HCT-15,> 100 µM
same,GI50,HOP-62,> 100 µM (inactive)
same,GI50,HOP-92,> 100 µM (inactive)
same,GI50,HT-29,> 100 µM (inactive)
same,GI50,Hs-578T,> 100 µM (inactive)
same,GI50,IGROV-1,> 100 µM (inactive)
same,GI50,K562,63.1 µM (inactive)
same,GI50,KM12,> 100 µM (inactive)
same,GI50,LOX IMVI,99.8 µM (inactive)
same,GI50,M14,> 100 µM (inactive)
same,GI50,MCF7,60.4 µM (inactive)
same,GI50,MDA-MB-231,> 100 µM (inactive)
same,GI50,MDA-MB-435,45.1 µM (inactive)
same,GI50,MDA-N,53.7 µM (inactive)
same,GI50,Malme-3M,> 100 µM (inactive)
same,GI50,NCI-H226,> 100 µM (inactive)
same,GI50,NCI-H23,> 100 µM (inactive)
same,GI50,NCI-H460,> 100 µM (inactive)
same,GI50,NCI-H522,> 100 µM (inactive)
same,GI50,NCI/ADR-RES,> 100 µM (inactive)
same,GI50,OVCAR-3,> 100 µM (inactive)
same,GI50,OVCAR-4,> 100 µM (inactive)
same,GI50,OVCAR-5,> 100 µM (inactive)
same,GI50,OVCAR-8,> 100 µM (inactive)
same,GI50,PC-3,> 100 µM (inactive)
same,GI50,RPMI-8226,53.1 µM (inactive)
same,GI50,RXF 393,> 100 µM (inactive)
same,GI50,SF-268,> 100 µM (inactive)
same,GI50,SF-295,> 100 µM (inactive)
same,GI50,SF-539,45.1 µM (inactive)
same,GI50,SK-MEL-28,> 100 µM (inactive)
same,GI50,SK-MEL-2,> 100 µM (inactive)
same,GI50,SK-MEL-5,> 100 µM (inactive)
same,GI50,SK-OV-3,> 100 µM (inactive)
same,GI50,SN12C,> 100 µM (inactive)
same,GI50,SNB-19,> 100 µM (inactive)
same,GI50,SNB-75,> 100 µM (inactive)
same,GI50,SR,61 µM (inactive)
same,GI50,SW-620,41.7 µM (inactive)
same,GI50,T47D,> 100 µM (inactive)
same,GI50,TK-10,> 100 µM (inactive)
same,GI50,U-251,> 100 µM (inactive)
same,GI50,UACC-257,> 100 µM (inactive)
same,GI50,UACC-62,> 100 µM (inactive)
same,GI50,UO-31,> 100 µM (inactive)
